According to publication PMC10868801, “Characterization of covalent inhibitors that disrupt the interaction between the tandem SH2 domains of SYK and FCER1G phospho-ITAM” (PLOS ONE, 2024):
≈ marks a conversion by molar mass, not a printed value. Entries after “also recorded” stand apart in the source; their conditions may differ.

Tests used:
[1] = target: T1, SYK-tSH2 / FCER1G p-ITAM interaction (Homo sapiens, UniProt P43405); experiment: TR-FRET assay of 6xHis-SYK-tSH2 with FITC-labeled FCER1G p-ITAM peptide; type: biochemical
T1 construct: the tSH2 domain of SYK (residues M6-N269) fused to an N-terminal 6×His tag; made in house; host or cells: E. coli BL21(DE3)-R3-pRARE
Source text: To facilitate identification of inhibitors of the SYK-FCER1G interaction, we developed a TR-FRET assay using recombinant protein comprising the tSH2 domain of SYK (residues M6-N269) fused to an N-terminal 6×His tag (S1A Fig). The TR-FRET assay is based on the interaction of a FITC-labeled FCER1G p-ITAM peptide to the 6×His-SYK-tSH2 protein in complex with a terbium-conjugated anti-His antibody (Tb-Ab) (Fig 3B). Once excited, a TR-FRET signal is generated from the Tb donor to the FITC acceptor fluorophore. […] To enable uHTS for large scale screening of small molecule libraries, we miniaturized the TR-FRET assay from 96-well plate format to a 1536-well.
TR-FRET experiments were performed in 20 μL reactions, using 384-well shallow-well microplates (PerkinElmer). Final reaction components contained 6xHis-SYK-tSH2 (SYKA-c020 tagged) (4 nM), FITC-conjugated FCER1G peptide (8 nM), Tb-conjugated anti-6xHis antibody (53 ng/ml; Cisbio) in assay buffer containing 25 mM HEPES (pH 7.5), 200 mM NaCl, 0.1% BSA and 0.05% Tween-20. After a 2h incubation (at room temperature), TR-FRET signals were measured on a BMG Labtech PHERAstar FSX reader using a Lanthascreen Optics Module. A 200 μs delay was used after excitation with a flash lamp before measurement of fluorescence emission at […]. TR-FRET ratios of fluorescent intensity at 520 nm to 490 nm were calculated. The half maximal inhibitory concentration (IC50) was determined by fitting a four parametric logistic curve to the data.

[2] = Kinetic solubility (Analiza, Inc., CLND); type: physicochemical; conditions: phosphate buffered saline, aqueous buffer, kinetic from dmso stock, PBS pH 7.4, 24 h incubation, by Analiza
Description: Following 24 h incubation in a Millipore solubility filter plate, samples were vacuum filtered, and the filtrates collected for analysis. Filtrates were injected into the nitrogen detector for quantification via total chemiluminescent nitrogen determination (CLND). Filtrates were quantified with respect to a calibration curve generated using standards that span the dynamic range of the instrument. The reported solubility value has been corrected for background nitrogen present in the media and DMSO.

[3] = LCMS characterization of fresh versus older DMSO stocks; type: physicochemical; conditions: older DMSO stocks versus freshly prepared solutions
Source text: To expand on the initial 40 putative hits that were identified via uHTS (Fig 3D), additional commercially available structural analogues were ordered and screened via TR-FRET and differential scanning fluorimetry (DSF) (S1 Table). […] The observation of a substantial reduction in protein melting temperature motivated us to determine if the compounds interacted covalently with the SYK-tSH2 domains. Additionally, since the thiourea in these small molecules is reported to react via oxidation, the compounds could be capable of forming a covalent disulfide bond with cysteine residues on SYK [39]. We used compound 1, which is a known covalent modifier of SYK-tSH2, as a positive control in the mass spectrometry analysis. […] Literature reports support that this type of chemical reaction can occur in DMSO, forming a disulfide bond. […]
Supplementary file pone.0293548.s005.tiff: S4 Fig Identification of active disulfide compounds which form in DMSO solutions of compounds 42 and 43. […] LCMS Calculated for [M+H]^+ C7H9N4O2S: 213.04; observed: 213.1 [M+H]^+. […] LCMS Calculated for [M+H]^+ C14H15N8O4S2: 423.06; observed: 423.0 [M+H]^+. […] LCMS Calculated for [M+H]^+ C10H15N4O2S: 255.08; observed: 255.1 [M+H]^+. […] LCMS Calculated for [M+H]^+ C20H27N8O4S2: 507.15; observed: 507.1 [M+H]^+. […]

SYK-tSH2 [4] = target: T2, SYK-tSH2 (Homo sapiens, UniProt P43405); experiment: Bio-layer interferometry (BLI) direct binding; conditions: BLI KD, biotinylated SYK-tSH2
SYK-tSH2 [5] = target: T2, SYK-tSH2; experiment: Covalent labelling and intact mass spectrometry; type: binding; design: tandem SH2 domains of human SYK (residues M6-N269); 6xHis (N, cleaved yes); made in house; host or cells: E. coli BL21(DE3)-R3-pRARE; conditions: for Covalent modification of SYK-tSH2 / Number of mass adducts on SYK-tSH2: 100 μM
Source text: The HTS hits 13 and 37 contain a kojic acid moiety, which is proposed to react covalently with proteins in the literature. As a result, we thought that it was likely these compounds are also reacting covalently with SYK-tSH2. […] When bound to the protein, these kojic acid-derived compounds have a 94 Da decrease in mass due to the loss of the pyridin-2-amine leaving group to reveal a Michael acceptor that can react covalently with cysteine residues (Fig 5B).
To expand on the initial 40 putative hits that were identified via uHTS (Fig 3D), additional commercially available structural analogues were ordered and screened via TR-FRET and differential scanning fluorimetry (DSF) (S1 Table). […] The observation of a substantial reduction in protein melting temperature motivated us to determine if the compounds interacted covalently with the SYK-tSH2 domains. Additionally, since the thiourea in these small molecules is reported to react via oxidation, the compounds could be capable of forming a covalent disulfide bond with cysteine residues on SYK [39]. We used compound 1, which is a known covalent modifier of SYK-tSH2, as a positive control in the mass spectrometry analysis. […] Literature reports support that this type of chemical reaction can occur in DMSO, forming a disulfide bond. […] Like we had originally observed for the older DMSO stock solution of 42 (Fig 6C), 44 forms two to four mass adducts (422 Da and 844 Da) more than the protein mass when incubated SYK-tSH2 for 1 h (Fig 6D). […] Due to the mass adducts of two to four (422 Da and 844 Da), we propose that 44 is forming a disulfide bond with between two or four cysteines on SYK-tSH2 (Fig 6G).

[6] = target: T3, full length SYK and FCER1G (Homo sapiens, UniProt P43405); experiment: GST pull-down (GST-PD) of GST-SYK and FCER1G-Flag from HEK293T cell lysates; type: biochemical; conditions: dose-response format
T3 construct: full length GST-SYK and FCER1G-Flag were co-expressed in HEK293 cells prior to lysis; expressed in transfected cells; host or cells: HEK293T (CRL-3216, ATCC)
Description: Pull-down assays were used as an orthogonal assay to determine if the compounds could disrupt the PPI between full length SYK and FCER1G proteins from cell lysates. To optimize GST pulldown assays, full length GST-SYK and FCER1G-Flag were co-expressed in HEK293 cells prior to lysis and the protein expression and cell lysate concentrations tested (Fig 4A). All 40 compounds that progressed from uHTS were tested via GST-PD at a single concentration (100 μM) to determine if they could inhibit the PPI between the full-length proteins, with the p-ITAM FCER1G peptide used as a positive control (Fig 4B). […] Compound 24 contains a promiscuous maleimide, which is well known to react indiscriminately with proteins.
GST-, VF-tagged human SYK and FCER1G plasmids for mammalian expression were generated using Gateway cloning technology (Invitrogen) as described previously. The DNA was purified using ZymoPURE Plasmid Maxiprep Kit (D4203, Zymo Research).
WB secondary antibodies: peroxidase-conjugated AffiniPure Goat Anti-Mouse IgG (H+L) (115-035-003, Jackson Immuno Research) 1:5000 dilution in TBST. GST pulldown was performed as described with minor changes. HEK293T (CRL-3216, ATCC) were cultured in Dulbecco’s modified Eagle’s medium with 4.5 g/L glucose, L-glutamine, and sodium pyruvate (10–013-CV, Corning) supplemented with 10% fetal bovine serum and 1% penicillin/streptomycin solution (30–002-CI, CellGro). Cells were incubated at 37°C in humidified conditions with 5% CO2. The HEK293T cells were transfected using 1 mg/mL Polyethylenimine (PEI; 23966, Polysciences) in a ratio of 3 μL to 1 μg DNA. The proteins were expressed for 48 h at 37°C. Cell pellets were re-suspended in the SYK lysis buffer (25 mM HEPES, pH 7.5, 200 mM NaCl, 0.5% Triton X100 (T9284-1L, Sigma-Aldrich), followed by sonication for 10 s (5 s on, 5 s off) at 4°C. Cells were pelleted by 10 min centrifugation at 13,000 rpm at 4°C. The cleared lysates were first pre-incubated with compounds for 30 min and then incubated with glutathione sepharose 4B beads (17075605, Cytiva Sweden AB) at 4°C for 2 h with rotation. After the incubation, beads were washed three times with the SYK lysis buffer, eluted by boiling in sodium dodecyl sulfate-polyacrylamide gel electrophoresis (SDS–PAGE) loading buffer (1610737, Bio-Rad), and analyzed by western blotting.

MSN = MSN (Homo sapiens, UniProt P26038); experiment: Covalent labelling and intact mass spectrometry (selectivity); conditions: 1 h, room temperature
[7] = test system: SYK-tSH2 domains with a doubly phosphorylated ITAM from a T-cell antigen receptor ζ-chain; design: method as in PMID 25287889; conditions: cited from earlier work
SYK-tSH2 [8] = test system: SYK-tSH2; design: method as in PMID 25287889; conditions: mass spectrometry; cited from earlier work

MSN, sequence (P26038 whole entry, species assumed, the tested form may be a part): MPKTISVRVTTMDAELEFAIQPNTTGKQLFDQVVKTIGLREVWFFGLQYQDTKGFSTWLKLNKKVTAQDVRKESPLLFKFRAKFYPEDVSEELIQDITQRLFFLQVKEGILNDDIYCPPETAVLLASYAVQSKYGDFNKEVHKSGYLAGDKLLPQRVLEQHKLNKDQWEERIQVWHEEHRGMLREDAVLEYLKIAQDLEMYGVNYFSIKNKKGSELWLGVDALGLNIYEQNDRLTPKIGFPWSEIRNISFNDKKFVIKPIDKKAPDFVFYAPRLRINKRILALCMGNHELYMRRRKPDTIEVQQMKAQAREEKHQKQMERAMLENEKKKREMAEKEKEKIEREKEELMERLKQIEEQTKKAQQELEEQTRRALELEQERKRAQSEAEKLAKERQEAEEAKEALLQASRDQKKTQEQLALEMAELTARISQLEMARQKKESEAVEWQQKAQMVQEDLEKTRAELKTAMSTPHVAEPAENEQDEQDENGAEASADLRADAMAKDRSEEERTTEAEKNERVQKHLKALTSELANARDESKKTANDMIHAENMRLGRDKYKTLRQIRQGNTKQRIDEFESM

Row | SMILES | IC50 [1] [µM] | solubility kinetic at 24 h [2] [µM] | Stability in DMSO stock solution [3] | Kd (SYK-tSH2 [4]) [µM] | Covalent modification of SYK-tSH2 (SYK-tSH2 [5]; 1 h, freshly prepared DMSO stock) | Number of mass adducts on SYK-tSH2 (SYK-tSH2 [5]; 1 h, older DMSO stock solution) | Covalent modification of SYK-tSH2 (SYK-tSH2 [5]; 1 h, older DMSO stock solutions) | PPI disruption in GST-PD [6] | melting point [°C] | Mass adducts on MSN (MSN; 30 μM) | Number of mass adducts on MSN (MSN; 100 μM, four available cysteines) | Compound concentration giving 50% labeling of SYK-tSH2 (SYK-tSH2 [5]; 10 μM SYK-tSH2, dose-response by mass spectrometry) [µM] | Mass adducts on SYK (SYK-tSH2 [5]; 30 μM, 1 h, room temperature) | Number of mass adducts on SYK-tSH2 (SYK-tSH2 [5]; 1 h, room temperature) | Interference with the TR-FRET assay [1] | Inhibition of p-ITAM binding with mutated SYK-tSH2 ([7]; Cys206 mutated to serine or alanine) | Disruption of SYK-tSH2 binding to doubly phosphorylated ITAM ([7]; fluorescence polarization inhibition assay) | Number of cysteines on SYK-tSH2 bound (SYK-tSH2 [8])
1 | Cn1c(=O)c2[nH]c(=S)[nH]c2n(C)c1=O [compound 42, 1,3-dimethyl-8-thioxo-3,7,8,9-tetrahydro-1H-purine-2,6-dione] | 1.9 ± 0.2 | 208 (≈ 44.1 µg/mL) | had formed corresponding disulfide dimers in DMSO over time | 99 ± 0.8 | did not form a covalent adduct | two | covalently modifies SYK-tSH2 | – | – | – | – | – | – | – | – | – | – | –
2 | Cn1c(=O)c2[nH]c(SSc3nc4c([nH]3)c(=O)n(C)c(=O)n4C)nc2n(C)c1=O [compound 44, 8,8’-disulfanediylbis(1,3-dimethyl-3,7-dihydro-1H-purine-2,6-dione)] | – | 70.9 (≈ 30 µg/mL) | – | – | – | – | – | disrupted the PPI; also recorded: able to disrupt the full-length interaction | > 300 | same formation of mass adducts as 100 μM incubation | two mass adducts | 30 | same formation of mass adducts as 100 μM incubation | two to four | – | – | – | –
3 | O=[N+]([O-])c1c(NCCO)cc(Cl)c2nonc12 [compound 1] | – | – | – | – | – | – | – | – | – | – | – | – | – | one or two | quenching the TR-FRET donor signal | complete loss of inhibition | disrupt the binding | 4
